From patent US10035760B2, “Inhibitors of human immunodeficiency virus replication” (priority 2013, dated 2018) come the findings set out here.

Molecules are shown by their SMILES. Like-named read-outs stand apart in the source and are kept apart here.

This assay deals with recombinant NL4-3 virus (Renilla luciferase) in MT-2 cells. Description: HIV cell culture assay (antiviral activity, luciferase readout in infected MT-2 cells). It is filed as cell-based. Particulars: Renilla. Summed up:
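Nef-deleted NL4-3 carrying Renilla luciferase, produced by 293T transfection, used to infect MT-2 cells for 4–5 days with serial compound dilutions. Live-cell luciferase signal read as infection marker; EC50 from exponential median-effect equation.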

[1] abbreviates: NL43, read-out: Activity, antiviral activity class, recombinant NL4-3 Renilla luciferase virus in MT-2 cells.
[2] abbreviates: NL43, recombinant NL4-3 Renilla luciferase virus in MT-2 cells.

In the case of `Cc1ccccc1S(=O)(=O)NC(=O)N[C@@H](Cc1ccccc1)C(=O)N(C)c1ccc2cc[nH]c(=O)c2c1` [Example CA-99, (S)—N-methyl-N-(1-oxo-1,2-dihydroisoquinolin-7-yl)-3-phenyl-2-(3-(o-tolylsulfonyl)ureido)propanamide], the EC50 under setting [1] was in the range of 1000 to 10000 nM.
Same read-out and setting: to `Cc1ccccc1S(=O)(=O)NC(=O)N[C@@H](Cc1ccccc1)C(=O)N(C)c1ccc(F)c(C(N)=O)c1` [Example CA-100, (S)-2-fluoro-5-(N-methyl-3-phenyl-2-(3-(o-tolylsulfonyl)ureido)propanamido)benzamide] belongs 1000 to 10000 nM.
Regarding `Cc1ccccc1S(=O)(=O)NC(=O)N[C@@H](Cc1ccccc1)C(=O)N(C)c1cccc2[nH]cnc12` [Example CA-101, (S)—N-(1H-benzo[d]imidazol-4-yl)-N-methyl-3-phenyl-2-(3-(o-tolylsulfonyl)ureido)propanamide], under setting [1], the EC50 was in the range of 1000 to 10000 nM.
Regarding `Cc1ccccc1S(=O)(=O)NC(=O)N[C@@H](Cc1cc(F)cc(F)c1)C(=O)N(C)c1ccc(F)c(C(N)=O)c1` [Example CA-102, (S)-5-(3-(3,5-difluorophenyl)-N-methyl-2-(3-(o-tolylsulfonyl)ureido)propanamido)-2-fluorobenzamide], the EC50 under setting [1] was in the range of 1000 to 10000 nM and the EC50 under setting [2] amounted to 2580 nM.
Regarding `Cc1ccccc1S(=O)(=O)NC(=O)N[C@@H](Cc1cc(F)cc(F)c1)C(=O)N(C)c1ccc2cc[nH]c(=O)c2c1` [Example CA-103, (S)-3-(3,5-difluorophenyl)-N-methyl-N-(1-oxo-1,2-dihydroisoquinolin-7-yl)-2-(3-(o-tolylsulfonyl)ureido)propanamide], the EC50 under setting [1] lay in the range of 1000 to 10000 nM and the EC50 under setting [2] amounted to 1330 nM.
Take `Cc1ccccc1S(=O)(=O)NC(=O)N[C@@H](Cc1cc(F)cc(F)c1)C(=O)N(C)c1ccc2cccnc2c1` [Example CA-104, (S)-3-(3,5-difluorophenyl)-N-methyl-N-(quinolin-7-yl)-2-(3-(o-tolylsulfonyl)ureido)propanamide]: the EC50 under setting [1] fell in the range of 100 to 1000 nM.
Consider `Cc1ccccc1S(=O)(=O)NC(=O)N[C@@H](Cc1cc(F)cc(F)c1)C(=O)N(C)c1cc2ccccc2cn1` [Example CA-105, (S)-3-(3,5-difluorophenyl)-N-(isoquinolin-3-yl)-N-methyl-2-(3-(o-tolylsulfonyl)ureido)propanamide], for which the EC50 under setting [1] lay in the range of 100 to 1000 nM.
On the same count and under the same terms, to `CNS(=O)(=O)c1cccc(N(C)C(=O)[C@H](Cc2cc(F)cc(F)c2)NC(=O)NS(=O)(=O)c2ccccc2C)c1` [Example CA-106, (S)-3-(3,5-difluorophenyl)-N-methyl-N-(3-(N-methylsulfamoyl)phenyl)-2-(3-(o-tolylsulfonyl)ureido)propanamide] belongs 1000 to 10000 nM; to `Cc1ccccc1S(=O)(=O)NC(=O)N[C@@H](Cc1cc(F)cc(F)c1)C(=O)N(C)c1ccccc1F` [Example CA-107, (S)-3-(3,5-difluorophenyl)-N-(2-fluorophenyl)-N-methyl-2-(3-(o-tolylsulfonyl)ureido)propanamide], 1000 to 10000 nM.
Consider `Cc1ccccc1S(=O)(=O)NC(=O)N[C@@H](Cc1cc(F)cc(F)c1)C(=O)N(C)c1ccc(OC(F)(F)F)cc1` [Example CA-108, (S)-3-(3,5-difluorophenyl)-N-methyl-2-(3-(o-tolylsulfonyl)ureido)-N-(4-(trifluoromethoxy)phenyl)propanamide], for which the EC50 under setting [1] is 100 to 1000 nM.
Regarding `Cc1ccccc1S(=O)(=O)NC(=O)N[C@@H](Cc1cc(F)cc(F)c1)C(=O)N(C)c1cccc2ncccc12` [Example CA-109, (S)-3-(3,5-difluorophenyl)-N-methyl-N-(quinolin-5-yl)-2-(3-(o-tolylsulfonyl)ureido)propanamide], the EC50 runs as follows: under setting [1], 100 to 1000 nM; under setting [2], 370 nM.
Turning to `Cc1ccccc1S(=O)(=O)NC(=O)N[C@@H](Cc1cc(F)cc(F)c1)C(=O)N(C)c1cccc2cnccc12` [Example CA-110, (S)-3-(3,5-difluorophenyl)-N-(isoquinolin-5-yl)-N-methyl-2-(3-(o-tolylsulfonyl)ureido)propanamide], the EC50 under setting [1] lay within 100 to 1000 nM.
